# Active and inactive are the calls of the source. The calls are words filed in the database; no cut-off is given here.
# Assays:
# [1] = target: Melanin-concentrating hormone receptor 2 (Homo sapiens) (UniProt Q969V1); experiment: Binding activity against human MCH-R2
# Mus musculus [2] = experiment: Inhibition of ex vivo MCH-ADO binding in mice 24 hours after 30 mg/kg peroral dose; assay type: functional; settings: route oral
# Mus musculus [3] = experiment: Inhibition of ex vivo MCH-ADO binding in mice 6 hours after 30mg/kg peroral dose; assay type: functional; settings: po
# [4] = AUC in rats following 10 mg/kg peroral dose; assay type: ADME, organism-based; set-up: dose 10 mg/kg, route oral; settings: rat, plasma, po
# [5] = target: T1, Melanin-concentrating hormone receptor 1 (Homo sapiens, UniProt Q99705); experiment: Binding activity against human MCH-R1
# [6] = target: T1, Melanin-concentrating hormone receptor 1; experiment: Inhibition of MCH-mediated calcium influx into CHO cells expressing human MCH-R1by FLIPR assay; assay type: functional, cell-based
# Mus musculus [7] = species: Mus musculus; experiment: Inhibition of cumulative food intake by fasted DIO mice at 4 hours; assay type: functional
# Mus musculus [8] = species: Mus musculus; experiment: Inhibition of cumulative food intake by fasted DIO mice at 24 hours; assay type: functional
# Mus musculus [9] = species: Mus musculus; experiment: Inhibition of cumulative food intake by fasted DIO mice at 6 hours; assay type: functional
# Mus musculus [10] = species: Mus musculus; experiment: Inhibition of cumulative food intake by fasted DIO mice at 2 hours; assay type: functional
# Chain of Melanin-concentrating hormone receptor 2 (Homo sapiens) (Q969V1 whole entry): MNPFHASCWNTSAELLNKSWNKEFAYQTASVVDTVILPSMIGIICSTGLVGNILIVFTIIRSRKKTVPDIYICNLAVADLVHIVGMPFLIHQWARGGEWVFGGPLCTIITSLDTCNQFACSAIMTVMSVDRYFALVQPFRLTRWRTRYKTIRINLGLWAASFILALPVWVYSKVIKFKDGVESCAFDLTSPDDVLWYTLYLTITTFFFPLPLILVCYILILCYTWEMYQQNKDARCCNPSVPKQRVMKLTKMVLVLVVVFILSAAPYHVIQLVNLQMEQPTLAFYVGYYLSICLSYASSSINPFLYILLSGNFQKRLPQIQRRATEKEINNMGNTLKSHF
# T1 sequence (Q99705 whole entry): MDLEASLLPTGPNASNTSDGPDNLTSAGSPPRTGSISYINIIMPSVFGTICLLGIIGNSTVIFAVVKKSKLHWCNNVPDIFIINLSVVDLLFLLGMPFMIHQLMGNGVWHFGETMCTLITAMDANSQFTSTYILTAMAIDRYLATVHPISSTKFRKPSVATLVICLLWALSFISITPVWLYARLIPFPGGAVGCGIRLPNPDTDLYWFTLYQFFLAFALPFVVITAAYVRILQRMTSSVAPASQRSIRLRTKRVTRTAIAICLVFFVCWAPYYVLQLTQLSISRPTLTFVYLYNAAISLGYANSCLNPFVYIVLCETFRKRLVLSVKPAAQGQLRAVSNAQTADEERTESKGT
Structure (SMILES),inhibition [1],inhibition in vivo at 30 mg/kg (Mus musculus [2]) [%],inhibition in vivo at 30 mg/kg (Mus musculus [3]) [%],Ki [5] [nM],further results
"CN1CCN(CCCN(c2nc3cc(F)c(F)cc3[nH]2)[C@@H]2CCC3(c4cccc(CO)c4)C[C@@H]3C2)CC1 (single isomer, unassigned)",inactive,–,–,–,–
"CN1CCN(CCCN(c2nc3cc(F)c(F)cc3[nH]2)[C@@H]2CCC3(c4cccc(C#N)c4)C[C@@H]3C2)CC1 (single isomer, unassigned)",inactive,17,37,–,AUC [4]: 293 ng·h/mL
"CN1CCN(CCCN(c2nc3cc(F)c(F)cc3[nH]2)[C@@H]2CCC3(c4cccc(C=O)c4)C[C@@H]3C2)CC1 (single isomer, unassigned)",inactive,–,–,16.3,–
CN1CCN(CCCN(c2nc3cc(F)c(F)cc3[nH]2)[C@@H]2CC[C@]3(c4cccc(CN5CC[C@H](O)C5)c4)C[C@@H]3C2)CC1,inactive,–,–,441,–
"CC(C)(C)OC(=O)N1CCC(CN(c2nc3cc(Cl)c(Cl)cc3[nH]2)[C@@H]2CCC3(c4cccc(C#N)c4)C[C@@H]3C2)CC1 (single isomer, unassigned)",inactive,–,–,1140,–
CN1CCN(CCCN(c2nc3cc(F)c(Cl)cc3[nH]2)[C@@H]2CC[C@]3(c4ccc(C#N)cc4)C[C@H]23)CC1,inactive,81,100,–,–
"CS(=O)(=O)N1CCC(CN(c2nc3cc(F)c(Cl)cc3[nH]2)[C@@H]2CCC3(c4cccc(C#N)c4)C[C@@H]3C2)CC1 (single isomer, unassigned)",inactive,–,–,6.7,–
CN1CCN(CCCN(c2nc3cc(Cl)c(Cl)cc3[nH]2)[C@@H]2CC[C@]3(c4cccc(C#N)c4)C[C@H]23)CC1,inactive,51,97,6.8,Kb [6]: 20 nM
"CN1CCN(CCCN(c2nc3cc(Cl)c(Cl)cc3[nH]2)[C@@H]2CCC3(c4cccc(CN5CCOCC5)c4)C[C@@H]3C2)CC1 (single isomer, unassigned)",inactive,–,–,14.2,–
CN1CCN(CCCN(c2nc3cc(F)c(Cl)cc3[nH]2)[C@@H]2CC[C@]3(c4cccc(C#N)c4)C[C@H]23)CC1,inactive,77,92,–,Inhibition (Mus musculus [7]): 19%; Inhibition (Mus musculus [8]): 5%; Inhibition (Mus musculus [9]): 21%; Kb [6]: 10 nM; Inhibition (Mus musculus [10]): 13%
"CN(C)Cc1cccc(C23CC[C@@H](N(CCCN4CCN(C)CC4)c4nc5cc(F)c(F)cc5[nH]4)C[C@H]2C3)c1 (single isomer, unassigned)",inactive,–,–,328,–
"CN1CCN(CCCN(c2nc3cc(Cl)c(F)cc3[nH]2)[C@@H]2CCC3(c4cccc(C#N)c4)C[C@@H]3C2)CC1 (single isomer, unassigned)",inactive,–,–,6.2,–
CN1CCN(CCCN(c2nc3cc(F)c(C(F)(F)F)cc3[nH]2)[C@@H]2CC[C@]3(c4ccc(C#N)cc4)C[C@H]23)CC1,–,94,100,8.6,Kb [6]: 43 nM; AUC [4]: 2800 ng·h/mL
"CN1CCN(CCCN(c2nc3cc(Cl)c(Cl)cc3[nH]2)[C@@H]2CCC3(c4cccc(C#N)c4)C[C@@H]3C2)CC1 (single isomer, unassigned)",inactive,97,81,–,Inhibition (Mus musculus [7]): 19%; Inhibition (Mus musculus [8]): 9%; Inhibition (Mus musculus [9]): 18%; Inhibition (Mus musculus [10]): 12%; AUC [4]: 965 ng·h/mL
CN1CCN(CCCN(c2nc3cc(F)c(F)cc3[nH]2)[C@@H]2CC[C@]3(c4cccc(CN5CCC[C@H]5CO)c4)C[C@@H]3C2)CC1,inactive,–,–,–,–
CO/N=C/c1cccc([C@]23CC[C@@H](N(CCCN4CCN(C)CC4)c4nc5cc(F)c(F)cc5[nH]4)C[C@H]2C3)c1,inactive,–,–,28.2,–
"CS(=O)(=O)N1CCC(CN(c2nc3cc(F)c(F)cc3[nH]2)[C@@H]2CCC3(c4cccc(C#N)c4)C[C@@H]3C2)CC1 (single isomer, unassigned)",inactive,0,0,27,AUC [4]: 350 ng·h/mL
"CN1CCN(CCCN(c2nc3cc(F)c(F)cc3[nH]2)[C@@H]2CCC3(c4cccc(CN5CCCC5)c4)C[C@@H]3C2)CC1 (single isomer, unassigned)",inactive,–,–,25.7,–
"CS(=O)(=O)N1CCC(CN(c2nc3cc(Cl)c(Cl)cc3[nH]2)[C@@H]2CCC3(c4cccc(C#N)c4)C[C@@H]3C2)CC1 (single isomer, unassigned)",inactive,0,12,1.5,–
CN1CCN(CCCN(c2nc3cc(Cl)c(Cl)cc3[nH]2)[C@@H]2CC[C@]3(c4ccc(C#N)cc4)C[C@H]23)CC1,inactive,–,–,11.4,–
CN1CCN(CCCN(c2nc3cc(Cl)c(F)cc3[nH]2)[C@@H]2CC[C@]3(c4cccc(C#N)c4)C[C@H]23)CC1,–,–,–,5.6,AUC [4]: 1920 ng·h/mL
"CN1CCN(CCCN(c2nc3cc(F)c(F)cc3[nH]2)[C@@H]2CCC3(c4cccc(CN5CCCCC5)c4)C[C@@H]3C2)CC1 (single isomer, unassigned)",inactive,–,–,–,–
CN1CCN(CCCN(c2nc3cc(F)c(F)cc3[nH]2)[C@@H]2CC[C@]3(c4cccc(C#N)c4)C[C@H]23)CC1,inactive,33,75,20.7,AUC [4]: 1490 ng·h/mL
CN1CCN(CCCN(c2nc3cc(Cl)c(F)cc3[nH]2)[C@@H]2CC[C@]3(c4ccc(C#N)cc4)C[C@H]23)CC1,–,–,–,4.9,–
"CN1CCN(CCCN(c2nc3cc(F)c(F)cc3[nH]2)[C@@H]2CCC3(c4cccc(CN5CCN(C)CC5)c4)C[C@@H]3C2)CC1 (single isomer, unassigned)",inactive,–,–,–,–
"CN(C)Cc1cccc(C23CC[C@@H](N(CCCN4CCN(C)CC4)c4nc5cc(Cl)c(Cl)cc5[nH]4)C[C@H]2C3)c1 (single isomer, unassigned)",inactive,–,–,4.9,–
"CN1CCN(CCCN(c2nc3cc(Cl)c(Cl)cc3[nH]2)[C@@H]2CCC3(c4cccc(C=O)c4)C[C@@H]3C2)CC1 (single isomer, unassigned)",inactive,–,–,13.7,–
"CN1CCN(CCCN(c2nc3cc(F)c(F)cc3[nH]2)[C@@H]2CCC3(c4cccc(CN5CCOCC5)c4)C[C@@H]3C2)CC1 (single isomer, unassigned)",inactive,–,–,21.3,–
